“And” between values parts separate entries of the source, which are not always exact repeats. Equal entries are not always repeated. Inconclusive results and toxic doses are left out.
Test system: CD2F1 mice, L1210 leukemia ip, survival T/C
Test: NCI In Vivo Anticancer Drug Screen. Data for tumor model L1210 Leukemia (intraperitoneal) in CD2F1 (CDF1) mice
Conditions: endpoint: mean survival time, higher = longer survival
In short: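 Read-out first: treated-group measurement over vehicle-control measurement, expressed as a ratio. Animals bore a transplanted tumor line and were dosed with compound or vehicle.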

[1] = dose: 200.0 mg/kg/injection, schedule: Q01DX009 (ip), vehicle: saline with Tween-80
[2] = dose: 100.0 mg/kg/injection, schedule: Q04DX003 (ip), vehicle: saline with Tween-80
[3] = dose: 200.0 mg/kg/injection, schedule: Q04DX003 (ip), vehicle: saline with Tween-80
[4] = dose: 400.0 mg/kg/injection, schedule: Q04DX003 (ip), vehicle: saline with Tween-80
[5] = dose: 50.0 mg/kg/injection, schedule: Q01DX009 (ip), vehicle: saline
[6] = dose: 100.0 mg/kg/injection, schedule: Q01DX009 (ip), vehicle: saline
[7] = dose: 150.0 mg/kg/injection, schedule: Q01DX009 (ip), vehicle: saline with Tween-80
[8] = dose: 200.0 mg/kg/injection, schedule: Q01DX009 (ip), vehicle: saline

## CC(=O)NCC(=O)[O][Sn]([c]1ccc(C)cc1)([c]1ccc(C)cc1)[c]1ccc(C)cc1
dose: 0.19 mg/kg/injection, schedule: Q01DX009 (ip), vehicle: saline
  T/C: 97 % of control
dose: 0.39 mg/kg/injection, schedule: Q01DX009 (ip), vehicle: saline
  T/C: 105 % of control
dose: 0.78 mg/kg/injection, schedule: Q01DX009 (ip), vehicle: saline
  T/C: 103 % of control and 111 % of control
dose: 1.56 mg/kg/injection, schedule: Q01DX009 (ip), vehicle: saline
  T/C: 100 % of control
dose: 3.12 mg/kg/injection, schedule: Q01DX009 (ip), vehicle: saline
  T/C: 91 % of control

## O=C1C(Cl)=C(NCc2ccccc2Cl)C(=O)c2ccccc21
dose: 12.5 mg/kg/injection, schedule: Q01DX001 (ip), vehicle: saline with Tween-80
  T/C: 108 % of control
dose: 25.0 mg/kg/injection, schedule: Q01DX001 (ip), vehicle: saline with Tween-80
  T/C: 108 % of control

## Clc1ccc(OCc2sc3ccc(Cl)cc3c2CN2CCOCC2)cc1
dose: 100.0 mg/kg/injection, schedule: Q01DX009 (ip), vehicle: saline with Tween-80
  T/C: 94 % of control
[1]
  T/C: 101 % of control
dose: 400.0 mg/kg/injection, schedule: Q01DX009 (ip), vehicle: saline with Tween-80
  T/C: 92 % of control

## CCOC(=O)c1c(N)sc2c1CCN(Cc1ccccc1)C2
[2]
  T/C: 98 % of control
[3]
  T/C: 93 % of control
[4]
  T/C: 88 % of control

## CC(C)C(C(O)c1ccccc1)[N+](=O)[O-] (stereo not drawn)
dose: 100.0 mg/kg/injection, schedule: Q01DX009 (ip), vehicle: saline sonified
  T/C: 102 % of control
[2]
  T/C: 102 % of control
dose: 200.0 mg/kg/injection, schedule: Q01DX009 (ip), vehicle: saline sonified
  T/C: 102 % of control
[3]
  T/C: 96 % of control
dose: 400.0 mg/kg/injection, schedule: Q01DX009 (ip), vehicle: saline sonified
  T/C: 100 % of control
[4]
  T/C: 100 % of control

## CCOP(=O)(NCCOC)OCC
dose: 25.0 mg/kg/injection, schedule: Q01DX009 (ip), vehicle: saline
  T/C: 94 % of control
dose: 25.0 mg/kg/injection, schedule: Q04DX003 (ip), vehicle: saline with Tween-80
  T/C: 101 % of control
[5]
  T/C: 91 % of control
dose: 50.0 mg/kg/injection, schedule: Q04DX003 (ip), vehicle: saline with Tween-80
  T/C: 94 % of control
[6]
  T/C: 88 % of control
[2]
  T/C: 101 % of control

## COC(=O)C(C(=O)OC)(C(=O)OC)C(=O)c1ccccc1
dose: 100.0 mg/kg/injection, schedule: Q01DX001 (ip), vehicle: saline with Tween-80
  T/C: 104 % of control
dose: 200.0 mg/kg/injection, schedule: Q01DX001 (ip), vehicle: saline with Tween-80
  T/C: 96 % of control
dose: 400.0 mg/kg/injection, schedule: Q01DX001 (ip), vehicle: saline with Tween-80
  T/C: 93 % of control

## CS(=O)(=O)c1cnccn1
dose: 100.0 mg/kg/injection, schedule: Q04DX003 (ip), vehicle: saline sonified
  T/C: 93 % of control
dose: 200.0 mg/kg/injection, schedule: Q04DX003 (ip), vehicle: saline sonified
  T/C: 95 % of control
dose: 400.0 mg/kg/injection, schedule: Q04DX003 (ip), vehicle: saline sonified
  T/C: 96 % of control

## CCN=C(N)C(N)=NCC (tested in a mixture with another compound)
dose: 25.0 mg/kg/injection, schedule: Q04DX002 (ip), vehicle: saline with Tween-80
  T/C: 98 % of control
dose: 50.0 mg/kg/injection, schedule: Q04DX002 (ip), vehicle: saline with Tween-80
  T/C: 98 % of control
dose: 100.0 mg/kg/injection, schedule: Q04DX002 (ip), vehicle: saline with Tween-80
  T/C: 93 % of control and 98 % of control
dose: 200.0 mg/kg/injection, schedule: Q04DX002 (ip), vehicle: saline with Tween-80
  T/C: 96 % of control and 87 % of control
dose: 400.0 mg/kg/injection, schedule: Q04DX002 (ip), vehicle: saline with Tween-80
  T/C: 93 % of control

## CC(C)NC(=O)NO
dose: 4.0 mg/kg/injection, schedule: Q03HX024 (ip), vehicle: saline
  T/C: 95 % of control
dose: 8.0 mg/kg/injection, schedule: Q03HX024 (ip), vehicle: saline
  T/C: 98 % of control
dose: 16.0 mg/kg/injection, schedule: Q03HX024 (ip), vehicle: saline
  T/C: 103 % of control
dose: 32.0 mg/kg/injection, schedule: Q03HX024 (ip), vehicle: saline
  T/C: 98 % of control
dose: 62.0 mg/kg/injection, schedule: Q03HX024 (ip), vehicle: saline with Tween-80
  T/C: 87 % of control
dose: 64.0 mg/kg/injection, schedule: Q03HX024 (ip), vehicle: saline
  T/C: 98 % of control

## Nc1nc(F)nc2c1ncn2C1OC(COC=O)C(OC=O)C1O (stereo not drawn) (tested in a mixture with another compound)
[6]
  T/C: 205 % of control
dose: 125.0 mg/kg/injection, schedule: Q01DX009 (ip), vehicle: saline
  T/C: 243 % of control and 419 % of control
[7]
  T/C: 512 % of control
dose: 150.0 mg/kg/injection, schedule: Q01DX009 (ip), vehicle: saline
  T/C: 288 % of control and 370 % of control
dose: 175.0 mg/kg/injection, schedule: Q01DX005 (ip), vehicle: saline with Tween-80
  T/C: 163 % of control
dose: 175.0 mg/kg/injection, schedule: Q01DX009 (ip), vehicle: saline with Tween-80
  T/C: 551 % of control
dose: 175.0 mg/kg/injection, schedule: Q01DX009 (ip), vehicle: saline
  T/C: 318 % of control
dose: 200.0 mg/kg/injection, schedule: Q01DX005 (ip), vehicle: saline with Tween-80
  T/C: 179 % of control
[1]
  T/C: 298 % of control
dose: 250.0 mg/kg/injection, schedule: Q01DX009 (ip), vehicle: saline with Tween-80
  T/C: 189 % of control

## C=CCOc1ccc(Cl)cc1Cl
dose: 37.5 mg/kg/injection, schedule: Q01DX009 (ip), vehicle: saline with Tween-80
  T/C: 93 % of control
dose: 75.0 mg/kg/injection, schedule: Q01DX009 (ip), vehicle: saline with Tween-80
  T/C: 101 % of control
[7]
  T/C: 97 % of control

## CC(C)CC(NC(=O)OCc1ccccc1)C(=O)NCCCCCCCCCCNC(=O)C(CC(C)C)NC(=O)OCc1ccccc1 (stereo not drawn)
dose: 10.0 mg/kg/injection, schedule: Q01DX Z (ip), vehicle: saline
  T/C: 96 % of control
dose: 30.0 mg/kg/injection, schedule: Q01DX Z (ip), vehicle: saline
  T/C: 97 % of control
dose: 100.0 mg/kg/injection, schedule: Q01DX Z (ip), vehicle: saline
  T/C: 91 % of control
dose: 300.0 mg/kg/injection, schedule: Q01DX Z (ip), vehicle: saline
  T/C: 97 % of control

## CCOc1c(F)ccc(F)c1-c1c(F)ccc(F)c1OCC
[2]
  T/C: 98 % of control
[3]
  T/C: 95 % of control
[4]
  T/C: 106 % of control

## Cn1c(=S)sc2ccccc21
dose: 25.0 mg/kg/injection, schedule: Q04DX003 (ip), vehicle: Klucel (hydroxypropylcellulose) (HPC)
  T/C: 101 % of control
dose: 50.0 mg/kg/injection, schedule: Q04DX003 (ip), vehicle: Klucel (hydroxypropylcellulose) (HPC)
  T/C: 109 % of control
[2]
  T/C: 110 % of control

## CC(O)CN(C)C (stereo not drawn)
dose: 100.0 mg/kg/injection, schedule: Q01DX001 (ip), vehicle: saline
  T/C: 98 % of control
dose: 200.0 mg/kg/injection, schedule: Q01DX001 (ip), vehicle: saline
  T/C: 103 % of control
dose: 400.0 mg/kg/injection, schedule: Q01DX001 (ip), vehicle: saline
  T/C: 103 % of control

## O=[N+]([O-])c1ccc(C[n+]2ccccc2)cc1
dose: 5.0 mg/kg/injection, schedule: Q01DX009 (ip), vehicle: saline
  T/C: 87 % of control
dose: 5.0 mg/kg/injection, schedule: Q04DX003 (ip), vehicle: saline
  T/C: 104 % of control
dose: 10.0 mg/kg/injection, schedule: Q01DX009 (ip), vehicle: saline
  T/C: 90 % of control
dose: 10.0 mg/kg/injection, schedule: Q04DX003 (ip), vehicle: saline
  T/C: 108 % of control
dose: 20.0 mg/kg/injection, schedule: Q01DX009 (ip), vehicle: saline
  T/C: 95 % of control
dose: 20.0 mg/kg/injection, schedule: Q04DX003 (ip), vehicle: saline
  T/C: 100 % of control

## Cc1ccc(C(SCC(N)C(=O)O)(c2ccc(C)cc2)c2ccc(C)cc2)cc1 (stereo not drawn)
[6]
  T/C: 175 % of control
[8]
  T/C: 210 % of control
dose: 400.0 mg/kg/injection, schedule: Q01DX009 (ip), vehicle: saline
  T/C: 200 % of control

## CC1NCCCNCCCNC(C)c2cccc1n2 (stereo not drawn)
dose: 50.0 mg/kg/injection, schedule: Q04DX002 (ip), vehicle: saline
  T/C: 104 % of control

## O=C1NC(=O)C([N+](=O)[O-])=C(O)C1=O
[5]
  T/C: 102 % of control
[6]
  T/C: 93 % of control
[8]
  T/C: 90 % of control

## CSc1nc(SC)c2c3c(N)ncnc3n(C3OC(CO)C(O)C3O)c2n1 (stereo not drawn)
dose: 12.5 mg/kg/injection, schedule: Q01DX005 (ip), vehicle: other
  T/C: 107 % of control
dose: 25.0 mg/kg/injection, schedule: Q01DX005 (ip), vehicle: other
  T/C: 121 % of control
dose: 100.0 mg/kg/injection, schedule: Q01DX005 (ip), vehicle: other
  T/C: 119 % of control
dose: 250.0 mg/kg/injection, schedule: Q01DX005 (ip), vehicle: other
  T/C: 121 % of control

## O=c1c2c([nH]c3ccccc13)CSC2
[2]
  T/C: 92 % of control
[3]
  T/C: 87 % of control
[4]
  T/C: 94 % of control

— PubChem BioAssay AID256 (DTP/NCI, 2004)
